# Reference: patent US20210038515A1 (Azurity Pharmaceuticals, Inc., priority 2014, published 2021)
# Test system: Clostridium difficile
# Assay: Agar dilution MIC of vancomycin preparations (Sigma, Cutis), diluent, Na benzoate and Na citrate
# Assay type: cell-based
# Details: for MIC, AV (average): average of triplicate; for MIC, VAN-1: replicate 1; for MIC, VAN-2: replicate 2; for MIC, VAN-3: replicate 3
# Method: Introduction: The purpose of the study was to compare the MICs obtained with the formulation of vancomycin HCL of the invention (Cutis) to formulations obtained using a vancomycin HCL reference standard powder obtained from Sigma. The Example also involves the analysis of a solution or diluent to determine if it has antimicrobial activity at the concentrations present in the agar dilution test.
# The C. difficile were tested by agar dilution according to the procedures in the Clinical and Laboratory Standards Institute. 2012. Methods for antimicrobial susceptibility testing of anaerobic bacteria; approved standard-seventh edition.
# Other anaerobic organisms included clinical isolates of Bifidobacterium adolescentis and Bacteroides fragilis. Clostridium difficile ATCC 700057 was included as a quality control strain.
# The C. difficile isolates were recovered from patients with CDI during the past two years and stored at −70° C. in 20% skim milk. Ribotyping was performed by another reference laboratory. The strains were taken from the freezer and subcultured at least twice to ensure purity and good growth.
# On the day of testing, they were suspended in Brucella broth to the turbidity of the 0.5 McFarland standard for testing.
# Stock solution of the Sigma vancomycin was prepared in water and stored at −70° C. On the day of testing, it was thawed and further diluted in water to obtain the desired range of 16-0.125 μg/ml. The Cutis vancomycin (25 mg/ml) was reconstituted on the day of testing and further diluted for a final range of 16-0.125 μg/ml in the test. The antimicrobials were added to molten Brucella agar supplemented with vitamin K and hemin to prepare the plates. Drug-free growth controls were included for testing before and after each set of plates. All testing was done in triplicate.
# The organisms were pipetted into the wells of the Steers replicator head and applied to the plates with the multi-pronged replicator. The final concentration of organisms was ˜10^5 CFU/spot.
# The plates were incubated in the anaerobic chamber incubator for 44 h and examined for growth.
# The Cutis diluent comprises: water, about 0.12% (w/v) citric acid (anhydrous), 0.2% (w/v) sucralose, about 0.05% (w/v) artificial grape flavor, 0.1% (w/v) sodium benzoate, about 0.0002% (w/v) D&C Yellow No. 10 and about 0.000038% (w/v) FD&C Red No. 40.
structure (smiles),measurement,setting,value
CN[C@H](CC(C)C)C(=O)N[C@H]1C(=O)N[C@@H](CC(N)=O)C(=O)N[C@H]2C(=O)N[C@H]3C(=O)N[C@H](C(=O)N[C@H](C(=O)O)c4cc(O)cc(O)c4-c4cc3ccc4O)[C@H](O)c3ccc(c(Cl)c3)Oc3cc2cc(c3O[C@@H]2O[C@H](CO)[C@@H](O)[C@H](O)[C@H]2O[C@H]2C[C@](C)(N)[C@H](O)[C@H](C)O2)Oc2ccc(cc2Cl)[C@H]1O.Cl [Sigma],"MIC, AV (average)","RMA 24690, ribotype 027",5.3 µg/mL
same,"MIC, VAN-1","RMA 24690, ribotype 027",4 µg/mL
same,"MIC, VAN-2","RMA 24690, ribotype 027",4 µg/mL
same,"MIC, VAN-3","RMA 24690, ribotype 027",8 µg/mL
same,"MIC, AV (average)","RMA 26381, ribotype 017",1.7 µg/mL
same,"MIC, VAN-1","RMA 26381, ribotype 017",2 µg/mL
same,"MIC, VAN-2","RMA 26381, ribotype 017",2 µg/mL
same,"MIC, VAN-3","RMA 26381, ribotype 017",1 µg/mL
same,"MIC, AV (average)","RMA 26442, ribotype 017",1 µg/mL
same,"MIC, VAN-1","RMA 26442, ribotype 017",1 µg/mL
same,"MIC, VAN-2","RMA 26442, ribotype 017",1 µg/mL
same,"MIC, VAN-3","RMA 26442, ribotype 017",1 µg/mL
same,"MIC, AV (average)","RMA 26443, ribotype 027",4 µg/mL
same,"MIC, VAN-1","RMA 26443, ribotype 027",4 µg/mL
same,"MIC, VAN-2","RMA 26443, ribotype 027",4 µg/mL
same,"MIC, VAN-3","RMA 26443, ribotype 027",4 µg/mL
same,"MIC, AV (average)","RMA 26445, ribotype 017",2 µg/mL
same,"MIC, VAN-1","RMA 26445, ribotype 017",2 µg/mL
same,"MIC, VAN-2","RMA 26445, ribotype 017",2 µg/mL
same,"MIC, VAN-3","RMA 26445, ribotype 017",2 µg/mL
same,"MIC, AV (average)","RMA 26446, ribotype 027",1 µg/mL
same,"MIC, VAN-1","RMA 26446, ribotype 027",1 µg/mL
same,"MIC, VAN-2","RMA 26446, ribotype 027",1 µg/mL
same,"MIC, VAN-3","RMA 26446, ribotype 027",1 µg/mL
same,"MIC, AV (average)","RMA 26447, ribotype 001",2 µg/mL
same,"MIC, VAN-1","RMA 26447, ribotype 001",2 µg/mL
same,"MIC, VAN-2","RMA 26447, ribotype 001",2 µg/mL
same,"MIC, VAN-3","RMA 26447, ribotype 001",2 µg/mL
same,"MIC, AV (average)","RMA 26451, ribotype 001",1.7 µg/mL
same,"MIC, VAN-1","RMA 26451, ribotype 001",2 µg/mL
same,"MIC, VAN-2","RMA 26451, ribotype 001",2 µg/mL
same,"MIC, VAN-3","RMA 26451, ribotype 001",1 µg/mL
same,"MIC, AV (average)","RMA 26455, ribotype 027",1 µg/mL
same,"MIC, VAN-1","RMA 26455, ribotype 027",1 µg/mL
same,"MIC, VAN-2","RMA 26455, ribotype 027",1 µg/mL
same,"MIC, VAN-3","RMA 26455, ribotype 027",1 µg/mL
same,"MIC, AV (average)","RMA 26457, ribotype 027",1 µg/mL
same,"MIC, VAN-1","RMA 26457, ribotype 027",1 µg/mL
same,"MIC, VAN-2","RMA 26457, ribotype 027",1 µg/mL
same,"MIC, VAN-3","RMA 26457, ribotype 027",1 µg/mL
same,"MIC, AV (average)","RMA 26461, ribotype 106",1.3 µg/mL
same,"MIC, VAN-1","RMA 26461, ribotype 106",1 µg/mL
same,"MIC, VAN-2","RMA 26461, ribotype 106",2 µg/mL
same,"MIC, VAN-3","RMA 26461, ribotype 106",1 µg/mL
same,"MIC, AV (average)","RMA 26463, ribotype 002",1.3 µg/mL
same,"MIC, VAN-1","RMA 26463, ribotype 002",1 µg/mL
same,"MIC, VAN-2","RMA 26463, ribotype 002",2 µg/mL
same,"MIC, VAN-3","RMA 26463, ribotype 002",1 µg/mL
same,"MIC, AV (average)","RMA 26466, ribotype 020",1.7 µg/mL
same,"MIC, VAN-1","RMA 26466, ribotype 020",2 µg/mL
same,"MIC, VAN-2","RMA 26466, ribotype 020",2 µg/mL
same,"MIC, VAN-3","RMA 26466, ribotype 020",1 µg/mL
same,"MIC, AV (average)","RMA 26467, ribotype 002",1.3 µg/mL
same,"MIC, VAN-1","RMA 26467, ribotype 002",1 µg/mL
same,"MIC, VAN-2","RMA 26467, ribotype 002",2 µg/mL
same,"MIC, VAN-3","RMA 26467, ribotype 002",1 µg/mL
same,"MIC, AV (average)","RMA 26471, ribotype 001",2 µg/mL
same,"MIC, VAN-1","RMA 26471, ribotype 001",2 µg/mL
same,"MIC, VAN-2","RMA 26471, ribotype 001",2 µg/mL
same,"MIC, VAN-3","RMA 26471, ribotype 001",2 µg/mL
same,"MIC, AV (average)","RMA 26472, ribotype 014",1 µg/mL
same,"MIC, VAN-1","RMA 26472, ribotype 014",1 µg/mL
same,"MIC, VAN-2","RMA 26472, ribotype 014",1 µg/mL
same,"MIC, VAN-3","RMA 26472, ribotype 014",1 µg/mL
same,"MIC, AV (average)","RMA 26480, ribotype 106",1 µg/mL
same,"MIC, VAN-1","RMA 26480, ribotype 106",1 µg/mL
same,"MIC, VAN-2","RMA 26480, ribotype 106",1 µg/mL
same,"MIC, VAN-3","RMA 26480, ribotype 106",1 µg/mL
same,"MIC, AV (average)","RMA 26484, ribotype 106",1 µg/mL
same,"MIC, VAN-1","RMA 26484, ribotype 106",1 µg/mL
same,"MIC, VAN-2","RMA 26484, ribotype 106",1 µg/mL
same,"MIC, VAN-3","RMA 26484, ribotype 106",1 µg/mL
same,"MIC, AV (average)","RMA 26485, ribotype 078",1.3 µg/mL
same,"MIC, VAN-1","RMA 26485, ribotype 078",2 µg/mL
same,"MIC, VAN-2","RMA 26485, ribotype 078",1 µg/mL
same,"MIC, VAN-3","RMA 26485, ribotype 078",1 µg/mL
same,"MIC, AV (average)","RMA 26489, ribotype 176",1 µg/mL
same,"MIC, VAN-1","RMA 26489, ribotype 176",1 µg/mL
same,"MIC, VAN-2","RMA 26489, ribotype 176",1 µg/mL
same,"MIC, VAN-3","RMA 26489, ribotype 176",1 µg/mL
same,"MIC, AV (average)","RMA 26494, ribotype 126",1.3 µg/mL
same,"MIC, VAN-1","RMA 26494, ribotype 126",1 µg/mL
same,"MIC, VAN-2","RMA 26494, ribotype 126",2 µg/mL
same,"MIC, VAN-3","RMA 26494, ribotype 126",1 µg/mL
same,"MIC, AV (average)","RMA 26500, ribotype 014",1 µg/mL
same,"MIC, VAN-1","RMA 26500, ribotype 014",1 µg/mL
same,"MIC, VAN-2","RMA 26500, ribotype 014",1 µg/mL
same,"MIC, VAN-3","RMA 26500, ribotype 014",1 µg/mL
same,"MIC, AV (average)","RMA 26503, ribotype 014",1 µg/mL
same,"MIC, VAN-1","RMA 26503, ribotype 014",1 µg/mL
same,"MIC, VAN-2","RMA 26503, ribotype 014",1 µg/mL
same,"MIC, VAN-3","RMA 26503, ribotype 014",1 µg/mL
same,"MIC, AV (average)","RMA 26543, ribotype 078",1 µg/mL
same,"MIC, VAN-1","RMA 26543, ribotype 078",1 µg/mL
same,"MIC, VAN-2","RMA 26543, ribotype 078",1 µg/mL
same,"MIC, VAN-3","RMA 26543, ribotype 078",1 µg/mL
same,"MIC, AV (average)","RMA 26544, ribotype 078",2 µg/mL
same,"MIC, VAN-1","RMA 26544, ribotype 078",2 µg/mL
same,"MIC, VAN-2","RMA 26544, ribotype 078",2 µg/mL
same,"MIC, VAN-3","RMA 26544, ribotype 078",2 µg/mL
same,"MIC, AV (average)","RMA 26563, ribotype 018",1 µg/mL
same,"MIC, VAN-1","RMA 26563, ribotype 018",1 µg/mL
same,"MIC, VAN-2","RMA 26563, ribotype 018",1 µg/mL
same,"MIC, VAN-3","RMA 26563, ribotype 018",1 µg/mL
same,"MIC, AV (average)","RMA 26572, ribotype 017",1.7 µg/mL
same,"MIC, VAN-1","RMA 26572, ribotype 017",2 µg/mL
same,"MIC, VAN-2","RMA 26572, ribotype 017",2 µg/mL
same,"MIC, VAN-3","RMA 26572, ribotype 017",1 µg/mL
